Data reported in ChEMBL document CHEMBL1201862, “PubChem BioAssay data set” (2004).
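Grown in 96-well plates, cells were treated for 48 hours with each compound at five concentrations. Insufficient inhibition: endpoint recorded as highest concentration tested. GI50: concentration for 50% inhibition of growth.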 The source made the active and inactive calls. Rule as the data show it: active = GI50 up to about 1.1 µM and inactive = higher.

Key:
Assay in all cases: DTP human tumour cell line panel, 48 h
[1] = system: HOP-92
[2] = system: SK-MEL-2
[3] = system: NCI/ADR-RES
[4] = system: SNB-75
[5] = system: KM12
[6] = system: SK-MEL-28
[7] = system: UACC-62
[8] = system: IGROV-1
[9] = system: HL-60
[10] = system: OVCAR-4
[11] = system: TK-10
[12] = system: DU-145
[13] = system: HOP-62
[14] = system: A498
[15] = system: BT-549
[16] = system: M14
[17] = system: UO-31
[18] = system: A549
[19] = system: RXF 393
[20] = system: MDA-N

Measured: GI50

CC(=O)C1(c2ccccc2)CCN(Cn2sc3nc(C)cc(C)c3c2=O)CC1
inactive: [1] 59.4 µM | [2] 44 µM | [3] 32 µM | [4] 28.3 µM | [5] > 100 µM | [6] 31.6 µM | [7] 28.9 µM | [8] > 100 µM | [9] 18.7 µM | [10] 21.9 µM | [11] 20.1 µM | [12] 31.4 µM | [13] 34.8 µM | [14] 78.2 µM | [15] 38.8 µM | [16] 25.8 µM | [17] 16.5 µM | [18] 64.7 µM | [19] 20.8 µM | [20] 19.8 µM

CCO/C=N/NC(=O)CSc1nc2ccc(I)cc2c(=O)n1Cc1ccccc1
inactive: [1] 83.6 µM | [2] 21.7 µM | [3] > 100 µM | [4] 40.5 µM | [5] 46.9 µM | [6] > 100 µM | [7] 43.9 µM | [8] 39 µM | [9] > 100 µM | [10] > 100 µM | [11] 34.7 µM | [12] > 100 µM | [13] 37.4 µM | [14] 84.5 µM | [15] > 100 µM | [16] 70.3 µM | [17] > 100 µM | [18] > 100 µM | [19] 34.6 µM | [20] 37.8 µM

NC1(C(=O)O)CCCC1C(=O)O (stereo not given)
inactive: [1] > 100 µM | [2] > 100 µM | [3] > 100 µM | [4] > 100 µM | [5] > 100 µM | [6] > 100 µM | [7] > 100 µM | [8] > 100 µM | [9] > 100 µM | [10] > 100 µM | [11] > 100 µM | [12] > 100 µM | [13] > 100 µM | [14] > 100 µM | [15] > 100 µM | [16] > 100 µM | [17] > 100 µM | [18] > 100 µM | [19] > 100 µM | [20] > 100 µM

CCOC(=O)/C=C(/OCC)[C@@H]1C(C(=O)c2ccc(Cl)cc2)[C@H]1/C(=C\C(=O)OCC)OCC (stereo not given in full)
inactive: [1] > 34.7 µM | [2] > 100 µM | [3] 29 µM | [4] 25.5 µM | [5] 56.9 µM | [6] > 100 µM | [7] > 30.7 µM | [8] > 100 µM | [9] 5.87 µM | [10] > 100 µM | [11] > 40.5 µM | [12] > 100 µM | [13] > 100 µM | [14] > 100 µM | [15] > 100 µM | [16] > 100 µM | [17] 8.79 µM | [18] > 100 µM | [19] 96.8 µM | [20] > 100 µM

FC(F)(F)c1nc2ccc(SSc3ccc4nc(C(F)(F)F)[nH]c4c3)cc2[nH]1
inactive: [1] > 10 µM | [2] > 10 µM | [3] > 10 µM | [4] > 10 µM | [5] > 10 µM | [6] > 10 µM | [7] 73.8 µM | [8] > 10 µM | [9] 48.8 µM | [10] 61.5 µM | [11] 79.3 µM | [12] > 10 µM | [13] 31.6 µM | [14] > 10 µM | [15] 92.7 µM | [16] 94.2 µM | [17] 31.6 µM | [18] 42.3 µM | [19] > 10 µM | [20] 80.5 µM
